The structures appear in SMILES notation. Bounds are passed on as bounds.

The target of one assay is T1, h P2X2/3 (Homo sapiens, UniProt P56373+Q9UBL9).
T1 sequence (P56373 1-397): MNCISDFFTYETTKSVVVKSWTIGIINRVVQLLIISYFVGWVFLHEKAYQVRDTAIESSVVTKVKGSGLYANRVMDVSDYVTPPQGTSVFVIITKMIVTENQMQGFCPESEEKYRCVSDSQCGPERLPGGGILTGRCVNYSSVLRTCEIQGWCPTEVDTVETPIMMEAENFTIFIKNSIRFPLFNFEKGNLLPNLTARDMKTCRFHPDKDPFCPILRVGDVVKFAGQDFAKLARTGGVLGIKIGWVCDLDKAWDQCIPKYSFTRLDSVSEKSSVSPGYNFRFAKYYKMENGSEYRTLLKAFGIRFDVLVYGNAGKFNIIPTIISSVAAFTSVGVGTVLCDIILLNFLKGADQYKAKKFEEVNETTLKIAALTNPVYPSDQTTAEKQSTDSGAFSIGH
T1 sequence (Q9UBL9 1-471): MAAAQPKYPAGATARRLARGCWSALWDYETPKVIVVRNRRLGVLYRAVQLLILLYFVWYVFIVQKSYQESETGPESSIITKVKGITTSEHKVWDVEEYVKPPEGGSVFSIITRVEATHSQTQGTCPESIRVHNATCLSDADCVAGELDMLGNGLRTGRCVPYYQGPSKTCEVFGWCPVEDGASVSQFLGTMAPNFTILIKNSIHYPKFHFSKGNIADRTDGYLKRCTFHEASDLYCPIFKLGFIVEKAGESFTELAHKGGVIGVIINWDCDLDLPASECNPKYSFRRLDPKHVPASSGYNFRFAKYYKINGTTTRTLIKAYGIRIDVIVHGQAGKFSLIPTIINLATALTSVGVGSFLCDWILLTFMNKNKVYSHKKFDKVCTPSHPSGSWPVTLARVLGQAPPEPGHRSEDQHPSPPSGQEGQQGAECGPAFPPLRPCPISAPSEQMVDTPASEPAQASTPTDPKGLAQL
Nature of the assay: In vitro electrophysiology assay for P2X2/3 (same protocol, 10 μM ATP as agonist). The class given is cell-based. To be noted: Table 7, range of activity. How it is done:
Cells expressing P2X3 receptors were grown according to standard practice and maintained at 37° C. in a 5% humidified CO2 atmosphere. The cells were seeded into T175 flask 2 days prior to the day of the assay and dissociated from the flasks using TrypLE when grown to confluence of 80-90%. The dissociated cells were resuspended in serum free media at a cell density of 3×10^6 cells/ml and loaded onto the Sophion Qube automated patch-clamp system. The extracellular assay buffer contained 145 mM NaCl, 4 mM KCl, 2 mM CaCl2), 1 mM MgCl2, 10 mM HEPES, and 10 mM glucose at pH 7.4. The intracellular assay solution contained 140 mM CsF, 10 mM NaCl, 10 mM EGTA, 10 mM HEPES at pH 7.2. Agonist stock solutions were prepared in H2O and diluted in bath solution prior to use. All antagonists were prepared as 10 mM stock solutions in DMSO and diluted in bath solution prior to use. All experiments were performed under the whole-cell patch clamp configuration at room temperature with 384 individual cells being voltage clamped at −60 mV simultaneously on the Sophion Qube instrument. Two baseline responses were established with the application of α,β-MeATP (800 nM), with the subsequent agonist applications being washed out using extracellular assay buffer containing 0.5 U/ml apyrase. Following the second agonist application, antagonist was incubated in the absence of α,β-MeATP for 10 minutes. After antagonist preincubation, 800 nM α,β-MeATP and antagonist were co-administered to determine the inhibitory effect of the antagonist. One concentration of an antagonist was assessed against a single cell, with different concentrations of the antagonist applied to other cells on the 384 recording substrate. The control P2X3 current amplitude was taken from the peak current amplitude from the second agonist response prior to preincubation with antagonist. The peak P2X3 current amplitude in the presence of antagonist was used to calculate the inhibitory effect at each concentration of the antagonist according to the following equation: […]
Concentration-response curves were constructed from ten different concentrations with each concentration of antagonist tested on at least two individual cells. The concentration of the antagonist to inhibit P2X3 current by 50% (IC50) was determined by fitting the data with the following equation: […]
Where ‘a’ is minimum response, ‘b’ is maximum response, ‘c’ is IC50 and ‘d’ is Hill slope.
Representative compound of the present invention have been also tested for P2X2/3 receptor.
The same assay protocol was used for the P2X2/3 assay as the P2X3 assay with two modifications: 1) 10 μM ATP was used as the agonist; and 2) the mean current amplitude was measured seven seconds after the application of agonist.

A further assay has as its target T2, h P2X3 (Homo sapiens, UniProt P56373).
T2 sequence (P56373 1-397): T1 sequence (P56373 1-397)
Briefly: In vitro electrophysiology assay for P2X3 (automated whole-cell patch clamp, Sophion Qube). The class given is cell-based. Conditions: range of activity. A digest of the protocol:
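Whole-cell automated patch clamp at room temperature, cells held at −60 mV; after two 800 nM α,β-MeATP baseline responses, antagonist preincubated 10 min then co-applied with 800 nM α,β-MeATP. Inhibition of peak current vs second agonist response; IC50 from 10-concentration curves, one concentration per cell.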
For orientation: The patch-clamp technique gives a direct electrical read-out from membranes.

The mark [1] stands for this setting: Table 6, inhibition of P2X3 current, agonist α,β-MeATP (800 nM).

Take `COc1cc(-c2ncc(C)cn2)cc2c(NCc3cccc(=O)[nH]3)ncnc12` [Example 152, 6-(((8-methoxy-6-(5-methylpyrimidin-2-yl)quinazolin-4-yl)amino)methyl)pyridin-2(1H)-one]: the half-inhibitory concentration (IC50) is 3160 to 31600 nM at h P2X2/3, less than 316 nM on h P2X3 (setting [1]) and less than 316 nM against h P2X3 (Table 7).

For the compound `COc1cc(-c2ncc(C)cc2F)cc2c(N[C@H](C)c3noc(C)n3)ncnc12` [Example 157, 6-(3-fluoro-5-methyl-2-pyridyl)-8-methoxy-N-[(1R)-1-(5-methyl-1,2,4-oxadiazol-3-yl)ethyl]quinazolin-4-amine], the concentration for half-maximal inhibition (IC50) was 3160 to 31600 nM at h P2X2/3, less than 316 nM on h P2X3 (setting [1]) and less than 316 nM at h P2X3 (Table 7).

For the compound `COc1cc(-c2ncc(F)cn2)cc2c(NC(C)c3nnc(C)s3)ncnc12` (centres unmarked) [Example 109, 6-(5-fluoropyrimidin-2-yl)-8-methoxy-N-(1-(5-methyl-1,3,4-thiadiazol-2-yl)ethyl)quinazolin-4-amine], the IC50 at h P2X2/3 lay within 3160 to 31600 nM; on h P2X3 (setting [1]), 316 to 3160 nM; against h P2X3 (Table 7), 316 to 3160 nM.

On to `COc1cc(-c2ncc(C)s2)cc2c(NCc3nc(C)no3)ncnc12` [Example 113, 8-methoxy-N-[(3-methyl-1,2,4-oxadiazol-5-yl)methyl]-6-(5-methylthiazol-2-yl)quinazolin-4-amine], for which the half-inhibitory concentration (IC50) at h P2X2/3 was 316 to 3160 nM; on h P2X3 (setting [1]), less than 316 nM; against h P2X3 (Table 7) it was less than 316 nM.

Regarding `COc1cc(-c2ccc(F)cc2)cc2c(NC(C)c3cccc(=O)[nH]3)ncnc12` (single isomer, unassigned) [Example 190, 6-(1-((6-(4-Fluorophenyl)-8-methoxyquinazolin-4-yl)amino)ethyl)pyridin-2(1H)-one], the IC50 at h P2X2/3 was 3160 to 31600 nM; on h P2X3 (setting [1]), 316 to 3160 nM; against h P2X3 (Table 7) it was 316 to 3160 nM.

As to `COc1cc(-c2ncc(C)s2)cc2c(NCc3ccc(C(F)(F)F)cn3)ncnc12` [Example 116, 8-methoxy-6-(5-methylthiazol-2-yl)-N-((5-(trifluoromethyl)pyridin-2-yl)methyl)quinazolin-4-amine], the IC50 on h P2X2/3 is 316 to 3160 nM; at h P2X3 (setting [1]) it was less than 316 nM; on h P2X3 (Table 7), less than 316 nM.

In the case of `COc1cc(-c2ncc(C)cn2)cc2c(NC(C)c3nc(C)no3)ncnc12` (single isomer, unassigned) [Example 123, 8-Methoxy-N-[1-(3-methyl-1,2,4-oxadiazol-5-yl)ethyl]-6-(5-methylpyrimidin-2-yl)quinazolin-4-amine], the IC50 was 3160 to 31600 nM at h P2X2/3, less than 316 nM on h P2X3 (setting [1]) and less than 316 nM against h P2X3 (Table 7).

As for `COc1cc(-n2cc(C)cn2)cc2c(N[C@H](C)c3ccc(C)nn3)ncnc12` [Example 99, (R)-8-methoxy-6-(4-methyl-1H-pyrazol-1-yl)-N-(1-(6-methylpyridazin-3-yl)ethyl)quinazolin-4-amine], the half-maximal inhibitory concentration (IC50) on h P2X2/3 was 316 to 3160 nM; at h P2X3 (setting [1]), less than 316 nM; at h P2X3 (Table 7), less than 316 nM.

In the case of `COc1cc(-c2ncc(C)cn2)cc2c(NCc3ccc(C)nc3)ncnc12` [Example 154, 8-methoxy-N-((6-methylpyridin-3-yl)methyl)-6-(5-methylpyrimidin-2-yl)quinazolin-4-amine], the IC50 at h P2X2/3 was 316 to 3160 nM; on h P2X3 (setting [1]) it was less than 316 nM; against h P2X3 (Table 7) it was less than 316 nM.

As to `COc1cc(-c2ncc(C)s2)cc2c(NC(C)c3noc(C)n3)ncnc12` (centres unmarked) [Example 107, 8-methoxy-N-(1-(5-methyl-1,2,4-oxadiazol-3-yl)ethyl)-6-(5-methylthiazol-2-yl)quinazolin-4-amine], the half-inhibitory concentration (IC50) on h P2X2/3 was 316 to 3160 nM; at h P2X3 (setting [1]) it was less than 316 nM; against h P2X3 (Table 7), less than 316 nM.

Turning to `COc1cc(-c2ncc(C)cn2)cc2c(NCc3ccc(C(F)(F)F)nc3)ncnc12` [Example 155], the IC50 was 316 to 3160 nM on h P2X2/3, less than 316 nM at h P2X3 (setting [1]) and less than 316 nM on h P2X3 (Table 7).

With `Cc1cnc(-c2cc(OC3CCOCC3)c3ncnc(NC(C)c4ccc(C)nn4)c3c2)nc1` (single isomer, unassigned) [Example 28, N-[1-(6-methylpyridazin-3-yl)ethyl]-6-(5-methylpyrimidin-2-yl)-8-tetrahydropyran-4-yloxy-quinazolin-4-amine], the 50% inhibitory concentration (IC50) is 316 to 3160 nM on h P2X2/3, less than 316 nM at h P2X3 (setting [1]) and less than 316 nM at h P2X3 (Table 7).

In the case of `COc1cc(-c2ccc(C)cn2)cc2c(NCc3nnc(C)o3)ncnc12` [Example 143, 8-methoxy-N-[(5-methyl-1,3,4-oxadiazol-2-yl)methyl]-6-(5-methyl-2-pyridyl)quinazolin-4-amine], the IC50 on h P2X2/3 was 3160 to 31600 nM; at h P2X3 (setting [1]), less than 316 nM; against h P2X3 (Table 7), less than 316 nM.

Regarding `COc1cc(-c2ncc(C)s2)cc2c(NCc3nc(C(F)(F)F)no3)ncnc12` [Example 112, 8-methoxy-6-(5-methylthiazol-2-yl)-N-[[3-(trifluoromethyl)-1,2,4-oxadiazol-5-yl]methyl]quinazolin-4-amine], the half-maximal inhibitory concentration (IC50) on h P2X2/3 was 316 to 3160 nM; at h P2X3 (setting [1]) it was less than 316 nM; on h P2X3 (Table 7), less than 316 nM.

With `COc1cc(-c2ccc(C)cn2)cc2c(NCc3cc(C)no3)ncnc12` [Example 137, 8-methoxy-N-((3-methylisoxazol-5-yl)methyl)-6-(5-methylpyridin-2-yl)quinazolin-4-amine], the half-maximal inhibitory concentration (IC50) at h P2X2/3 was 3160 to 31600 nM; at h P2X3 (setting [1]) it was less than 316 nM; against h P2X3 (Table 7), less than 316 nM.

With `C[C@@H](Nc1ncnc2c(-c3ccnnc3)cc(-c3ccc(F)cc3)cc12)c1cnc(C(F)(F)F)nc1` [Example 24, (R)-6-(4-fluorophenyl)-8-(pyridazin-4-yl)-N-(1-(2-(trifluoromethyl)pyrimidin-5-yl)ethyl)quinazolin-4-amine], the results for the IC50 at h P2X2/3, on h P2X3 (setting [1]) and against h P2X3 (Table 7) were 3160 to 31600 nM, less than 316 nM and less than 316 nM, respectively.

As for `COc1cc(-c2ncc(C)cn2)cc2c(NC(C)c3nnc(C)o3)ncnc12` (single isomer, unassigned) [Example 129], the results for the 50% inhibitory concentration (IC50) on h P2X2/3, at h P2X3 (setting [1]) and against h P2X3 (Table 7) were 3160 to 31600 nM, less than 316 nM and less than 316 nM, respectively.

Regarding `COc1cc(-c2ccc(C)cn2)cc2c(NCc3noc(C)n3)ncnc12` [Example 136, 8-methoxy-N-((5-methyl-1,2,4-oxadiazol-3-yl)methyl)-6-(5-methylpyridin-2-yl)quinazolin-4-amine], the results for the half-maximal inhibitory concentration (IC50) at h P2X2/3, on h P2X3 (setting [1]) and against h P2X3 (Table 7) were 3160 to 31600 nM, 316 to 3160 nM and 316 to 3160 nM, respectively.

At h P2X2/3, `CNS(=O)(=O)c1cc(-c2ccc(F)cc2)cc2c(N[C@H](C)c3noc(C)n3)ncnc12` [Example 20, (R)-6-(4-fluorophenyl)-N-methyl-4-((1-(5-methyl-1,2,4-oxadiazol-3-yl)ethyl)amino)quinazoline-8-sulfonamide] yielded an IC50 of 316 to 3160 nM.

Turning to `CNS(=O)(=O)c1cc(-c2ccc(F)cc2)cc2c(N[C@H](C)c3ccc(C)nn3)ncnc12` [Example 19, (R)-6-(4-fluorophenyl)-N-methyl-4-((1-(6-methylpyridazin-3-yl)ethyl)amino)quinazoline-8-sulfonamide], the IC50 on h P2X2/3 lay in the range of 316 to 3160 nM.

What is called IC50 is the midpoint of a concentration-inhibition curve.

Source of the values: patent publication US12466820B2, “Amino quinazoline derivatives as P2X3 inhibitors” (CHIESI FARMACEUTICI S.p.A., priority 2019, dated 2025).
